Source: patent publication US7566712B2, “Biaryl piperazinyl-pyridine analogues” (Neurogen Corporation, priority 2003, dated 2009)

Biological target: T1, human capsaicin receptor (Homo sapiens, UniProt Q8NER1)
T1 construct: pBK-CMV expression construct encoding the full length human capsaicin receptor; expressed in transfected cells
Assay: Calcium mobilization assay, determination of antagonist activity (Example 6)
Type: cell-based
Conditions: determined as described in Example 6 (calcium mobilization, antagonist activity); Table II
Procedure, shortened: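 Antagonism measured as inhibition of capsaicin-evoked (final concentration = EC50, from an 8-point 1 nM–3 μM curve) Fluo-3 calcium signal in stable hVR1-HEK293 cells. Test compounds at 1–5 μM final, 0.5–6 h dark preincubation at room temperature. IC50 = concentration giving 50% reduction versus agonist-only response.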

T1 sequence (Q8NER1 whole entry): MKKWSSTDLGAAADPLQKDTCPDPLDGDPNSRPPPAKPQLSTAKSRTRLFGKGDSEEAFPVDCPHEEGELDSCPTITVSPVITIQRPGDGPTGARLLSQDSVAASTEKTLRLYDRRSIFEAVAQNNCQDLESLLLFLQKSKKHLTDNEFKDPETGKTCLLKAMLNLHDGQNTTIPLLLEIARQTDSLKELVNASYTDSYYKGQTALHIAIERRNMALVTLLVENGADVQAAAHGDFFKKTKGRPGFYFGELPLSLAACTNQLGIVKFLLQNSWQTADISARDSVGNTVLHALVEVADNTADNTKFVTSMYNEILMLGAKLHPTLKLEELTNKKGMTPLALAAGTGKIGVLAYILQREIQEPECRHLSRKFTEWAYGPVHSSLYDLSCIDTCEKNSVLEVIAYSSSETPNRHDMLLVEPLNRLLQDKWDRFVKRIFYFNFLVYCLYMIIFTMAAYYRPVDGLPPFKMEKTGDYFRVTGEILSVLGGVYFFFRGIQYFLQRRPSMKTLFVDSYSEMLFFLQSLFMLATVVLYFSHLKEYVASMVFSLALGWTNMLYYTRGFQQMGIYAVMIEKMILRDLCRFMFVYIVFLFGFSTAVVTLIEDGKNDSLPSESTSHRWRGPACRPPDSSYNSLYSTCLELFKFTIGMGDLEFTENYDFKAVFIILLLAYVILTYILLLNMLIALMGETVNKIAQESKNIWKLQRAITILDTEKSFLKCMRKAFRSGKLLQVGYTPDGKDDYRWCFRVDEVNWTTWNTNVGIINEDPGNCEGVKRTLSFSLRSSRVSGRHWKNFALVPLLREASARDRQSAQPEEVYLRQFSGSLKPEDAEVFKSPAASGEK

Structure (SMILES) | IC50
CC(C)c1nccn1-c1nc(-c2cccc(Cl)c2)cc(N2CCN(c3ncccc3C(F)(F)F)CC2)n1 [Example 618, 4-(3-chlorophenyl)-2-(2-isopropyl-1H-imidazol-1-yl)-6-{4-[3-(trifluoromethyl)pyridin-2-yl]piperazin-1-yl}pyrimidine] | ≤ 1 µM
CN(CC(=O)O)c1nc(-c2ccc(F)c(Cl)c2)cc(N2CCN(c3ncccc3C(F)(F)F)CC2)n1 [Example 619, N-(4-(3-chloro-4-fluorophenyl)-6-{4-[3-(trifluoromethyl)pyridin-2-yl]piperazin-1-yl}pyrimidin-2-yl)-N-methylglycine] | ≤ 1 µM
C[C@H](Nc1nc(-c2ccc(F)c(Cl)c2)cc(N2CCN(c3ncccc3C(F)(F)F)CC2)n1)C(=O)O [Example 620, N-(4-(3-chloro-4-fluorophenyl)-6-{4-[3-(trifluoromethyl)pyridin-2-yl]piperazin-1-yl}pyrimidin-2-yl)alanine] | ≤ 1 µM
CCN1CCN(c2nc(-c3ccc(F)c(Cl)c3)cc(N3CCN(c4ncccc4C(F)(F)F)CC3)n2)CC1 [Example 623, 4-(3-chloro-4-fluorophenyl)-2-(4-ethylpiperazin-1-yl)-6-{4-[3-(trifluoromethyl)pyridin-2-yl]piperazin-1-yl}pyrimidine] | ≤ 1 µM
Fc1ccc(-c2cc(N3CCN(c4ncccc4C(F)(F)F)CC3)nc(N3CCN(CC4CC4)CC3)n2)cc1Cl [Example 624, 4-(3-chloro-4-fluorophenyl)-2-[4-(cyclopropylmethyl)piperazin-1-yl]-6-{4-[3-(trifluoromethyl)pyridin-2-yl]piperazin-1-yl}pyrimidine] | ≤ 1 µM
CC(=O)N1CCN(c2nc(-c3ccc(F)c(Cl)c3)cc(N3CCN(c4ncccc4C(F)(F)F)CC3)n2)CC1 [Example 625, 2-(4-acetylpiperazin-1-yl)-4-(3-chloro-4-fluorophenyl)-6-{4-[3-(trifluoromethyl)pyridin-2-yl]piperazin-1-yl}pyrimidine] | ≤ 1 µM
CCC(=O)N1CCN(c2nc(-c3ccc(F)c(Cl)c3)cc(N3CCN(c4ncccc4C(F)(F)F)CC3)n2)CC1 [Example 626, 4-(3-chloro-4-fluorophenyl)-2-(4-propionylpiperazin-1-yl)-6-{4-[3-(trifluoromethyl)pyridin-2-yl]piperazin-1-yl}pyrimidine] | ≤ 1 µM
C[C@@H]1CN(c2nc(-c3ccc(F)c(Cl)c3)cc(N3CCN(c4ncccc4C(F)(F)F)CC3)n2)[C@@H](C)CN1 [Example 627, 4-(3-chloro-4-fluorophenyl)-2-[(2S,5R)-2,5-dimethylpiperazin-1-yl]-6-{4-[3-(trifluoromethyl)pyridin-2-yl]piperazin-1-yl}pyrimidine] | ≤ 1 µM
C[C@@H]1CN(c2nc(-c3ccc(F)c(Cl)c3)cc(N3CCN(c4ncccc4C(F)(F)F)CC3)n2)[C@@H](C)CN1C [Example 628, 4-(3-chloro-4-fluorophenyl)-6-{4-[3-(trifluoromethyl)pyridin-2-yl]piperazin-1-yl}-2-[(2S,5R)-2,4,5-trimethylpiperazin-1-yl]pyrimidine] | ≤ 1 µM
CC1CNCCN1c1nc(-c2ccc(F)c(Cl)c2)cc(N2CCN(c3ncccc3C(F)(F)F)CC2)n1 (stereo not shown) [Example 629, 4-(3-chloro-4-fluorophenyl)-2-(2-methylpiperazin-1-yl)-6-{4-[3-(trifluoromethyl)pyridin-2-yl]piperazin-1-yl}pyrimidine] | ≤ 1 µM
CC1CN(C)CCN1c1nc(-c2ccc(F)c(Cl)c2)cc(N2CCN(c3ncccc3C(F)(F)F)CC2)n1 (stereo not shown) [Example 630, 4-(3-chloro-4-fluorophenyl)-2-(2,4-dimethylpiperazin-1-yl)-6-{4-[3-(trifluoromethyl)pyridin-2-yl]piperazin-1-yl}pyrimidine] | ≤ 1 µM
Cc1cncc(-c2cc(N3CCN(c4ncccc4C(F)(F)F)CC3)nc(N3CCOCC3)n2)c1 [Example 631, 4-(4-(5-methylpyridin-3-yl)-6-{4-[3-(trifluoromethyl)pyridin-2-yl]piperazin-1-yl}pyrimidin-2-yl)morpholine] | ≤ 1 µM
CC1CN(c2cc(-c3ccc(F)c(Cl)c3)nc(N3CCOCC3)n2)CCN1c1ccccn1 (stereo not shown) [Example 632, 4-[4-(3-chloro-4-fluorophenyl)-6-(3-methyl-4-pyridin-2-ylpiperazin-1-yl)pyrimidin-2-yl]morpholine] | ≤ 1 µM
CCc1nccn1-c1nc(-c2cccc(Cl)c2)cc(N2CCN(c3ncccc3C(F)(F)F)CC2)n1 [Example 633, 4-(3-chlorophenyl)-2-(2-ethyl-1H-imidazol-1-yl)-6-{4-[3-(trifluoromethyl)pyridin-2-yl]peperazin-1-yl}pyrimidine] | ≤ 1 µM
CC1CN(c2nc(-c3ccc(F)c(Cl)c3)cc(N3CCN(c4ncccc4C(F)(F)F)CC3)n2)CCN1C (stereo not shown) [Example 634, 4-(3-chloro-4-fluorophenyl)-2-(3,4-dimethylpiperazin-1-yl)-6-{4-[3-(trifluoromethyl)pyridin-2-yl]piperazin-1-yl}pyrimidine] | ≤ 1 µM
Fc1ccc(-c2cc(N3CCN(c4ncccc4C(F)(F)F)CC3)nc(-c3ncco3)n2)cc1Cl [Example 635, 4-(3-chloro-4-fluorophenyl)-2-(1,3-oxazol-2-yl)-6-{4-[3-(trifluoromethyl)pyridin-2-yl]piperazin-1-yl}pyrimidine] | ≤ 1 µM
CC1(C)CN(c2nc(-c3ccc(F)c(Cl)c3)cc(N3CCN(c4ncccc4C(F)(F)F)CC3)n2)CCO1 [Example 636, 4-(4-(3-chloro-4-fluorophenyl)-6-{4-[3-(trifluoromethyl)pyridin-2-yl]piperazin-1-yl}pyrimidin-2-yl)-2,2-dimethylmorpholine] | ≤ 1 µM

Results, then the molecule that gave them:

IC50 | Structure (SMILES)
≤ 1 µM | CCN(CC)c1nc(-c2cccc(C)c2)cc(N2CCN(c3ncccc3C(F)(F)F)CC2)n1 [Example 604, N,N-diethyl-4-(3-methylphenyl)-6-{4-[3-(trifluoromethyl)pyridin-2-yl]piperazin-1-yl}pyrimidin-2-amine]
≤ 1 µM | CC(C)c1nc(-c2ccc(F)c(Cl)c2)cc(N2CCN(c3ncccc3C(F)(F)F)CC2)n1 [Example 605, 4-(3-chloro-4-fluorophenyl)-2-isopropyl-6-{4-[3-(trifluoromethyl)pyridin-2-yl]piperazin-1-yl}pyrimidine]
≤ 1 µM | Cc1ccc(-c2cc(N3CCN(c4ncccc4C(F)(F)F)CC3)nc(N3CCOCC3)n2)cn1 [Example 606, 4-(4-(6-methylpyridin-3-yl)-6-{4-[3-(trifluoromethyl)pyridin-2-yl]piperazin-1-yl}pyrimidin-2-yl)morpholine]
≤ 1 µM | CCN(CC)c1nc(-c2ccc(C)nc2)cc(N2CCN(c3ncccc3C(F)(F)F)CC2)n1 [Example 607, N,N-diethyl-4-(6-methylpyridin-3-yl)-6-{4-[3-(trifluoromethyl)pyridin-2-yl]piperazin-1-yl}pyrimidin-2-amine]
≤ 1 µM | FC(F)(F)c1cccnc1N1CCN(c2cc(-c3ccc(N4CCCC4)c(Cl)c3)nc(N3CCCC3)n2)CC1 [Example 608, 4-(3-chloro-4-pyrrolidin-1-ylphenyl)-2-pyrrolidin-1-yl-6-{4-[3-(trifluoromethyl)pyridin-2-yl]piperazin-1-yl}pyrimidine]
≤ 1 µM | CC1CCCN1c1nc(-c2ccc(F)c(Cl)c2)cc(N2CCN(c3ncccc3C(F)(F)F)CC2)n1 (stereo not shown) [Example 609, 4-(3-chloro-4-fluorophenyl)-2-(2-methylpyrrolidin-1-yl)-6-{4-[3-(trifluoromethyl)pyridin-2-yl]piperazin-1-yl}pyrimidine]
≤ 1 µM | OC[C@H]1CCCN1c1nc(-c2ccc(F)c(Cl)c2)cc(N2CCN(c3ncccc3C(F)(F)F)CC2)n1 [Example 610, [(2R)-1-(4-(3-chloro-4-fluorophenyl)-6-{4-[3-(trifluoromethyl)pyridin-2-yl]piperazin-1-yl}pyrimidin-2-yl)pyrrolidin-2-yl]methanol]
≤ 1 µM | CC1CCCCN1c1nc(-c2ccc(F)c(Cl)c2)cc(N2CCN(c3ncccc3C(F)(F)F)CC2)n1 (stereo not shown) [Example 611, 4-(3-chloro-4-fluorophenyl)-2-(2-methylpiperidin-1-yl)-6-{4-[3-(trifluoromethyl)pyridin-2-yl]piperazin-1-yl}pyrimidine]
≤ 1 µM | CC1(C)CCCN(c2nc(-c3ccc(F)c(Cl)c3)cc(N3CCN(c4ncccc4C(F)(F)F)CC3)n2)C1 [Example 612, 4-(3-chloro-4-fluorophenyl)-2-(3,3-dimethylpiperidin-1-yl)-6-{4-[3-(trifluoromethyl)pyridin-2-yl]piperazin-1-yl}pyrimidine]
≤ 1 µM | CCC1CCCCN1c1nc(-c2ccc(F)c(Cl)c2)cc(N2CCN(c3ncccc3C(F)(F)F)CC2)n1 (stereo not shown) [Example 613, 4-(3-chloro-4-fluorophenyl)-2-(2-ethylpiperidin-1-yl)-6-{4-[3-(trifluoromethyl)pyridin-2-yl]piperazin-1-yl}pyrimidine]
≤ 1 µM | CC1CN(c2nc(-c3ccc(F)c(Cl)c3)cc(N3CCN(c4ncccc4C(F)(F)F)CC3)n2)CCN1 (stereo not shown) [Example 614, 4-(3-chloro-4-fluorophenyl)-2-(3-methylpiperazin-1-yl)-6-{4-[3-(trifluoromethyl)pyridin-2-yl]piperazin-1-yl}pyrimidine]
≤ 1 µM | CC(C)CN(C)c1nc(-c2ccc(F)c(Cl)c2)cc(N2CCN(c3ncccc3C(F)(F)F)CC2)n1 [Example 615, 4-(3-chloro-4-fluorophenyl)-N-isobuty-methyl-6-{4-[3-(trifluoromethyl)pyridin-2-yl]piperazin-1-yl}pyrimidin-2-amine]
≤ 1 µM | Cc1cccnc1-c1nc(-c2ccc(F)c(Cl)c2)cc(N2CCN(c3ncccc3C(F)(F)F)CC2)n1 [Example 616, 4-(3-chloro-4-fluorophenyl)-2-(3-methylpyridin-2-yl)-6-{4-[3-(trifluoromethyl)pyridin-2-yl]piperazin-1-yl}pyrimidine]
≤ 1 µM | Fc1ccc(-c2cc(N3CCN(c4ncccc4C(F)(F)F)CC3)nc(-c3ccncc3)n2)cc1Cl [Example 617, 4-(3-chloro-4-fluorophenyl)-2-pyridin-4-yl-6-{4-[3-(trifluoromethyl)pyridin-2-yl]piperazin-1-yl}pyrimidine]
